{"source": "paper PMC3257218", "about": "(Journal of Medicinal Chemistry, 2011)", "key": {"[1]": {"molecular_target": "MATE2-K (Homo sapiens, UniProt Q86VL8)", "sequence (Q86VL8 1-566 isoform Q86VL8-3)": "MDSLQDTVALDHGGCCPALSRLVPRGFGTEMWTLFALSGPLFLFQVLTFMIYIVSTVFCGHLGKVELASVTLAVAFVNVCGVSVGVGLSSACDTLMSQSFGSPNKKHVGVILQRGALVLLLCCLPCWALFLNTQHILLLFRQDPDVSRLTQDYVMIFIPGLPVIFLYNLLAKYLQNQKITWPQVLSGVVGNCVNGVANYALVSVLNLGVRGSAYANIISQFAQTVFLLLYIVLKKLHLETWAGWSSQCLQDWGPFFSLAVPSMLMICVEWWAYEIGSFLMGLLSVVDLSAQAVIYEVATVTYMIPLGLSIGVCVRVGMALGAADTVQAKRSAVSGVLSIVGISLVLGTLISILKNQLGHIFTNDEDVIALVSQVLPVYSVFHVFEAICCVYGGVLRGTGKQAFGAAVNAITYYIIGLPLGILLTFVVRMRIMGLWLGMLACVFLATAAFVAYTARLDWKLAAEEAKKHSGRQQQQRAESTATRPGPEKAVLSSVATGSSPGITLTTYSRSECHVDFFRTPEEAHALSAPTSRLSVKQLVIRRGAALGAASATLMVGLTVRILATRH", "assay": "ASP+ uptake inhibition in HEK293 cells stably expressing MATE2-K", "assay_type": "cell-based"}, "[2]": {"molecular_target": "T1, MATE1 (Homo sapiens, UniProt Q96FL8)", "T1 sequence (Q96FL8 1-570)": "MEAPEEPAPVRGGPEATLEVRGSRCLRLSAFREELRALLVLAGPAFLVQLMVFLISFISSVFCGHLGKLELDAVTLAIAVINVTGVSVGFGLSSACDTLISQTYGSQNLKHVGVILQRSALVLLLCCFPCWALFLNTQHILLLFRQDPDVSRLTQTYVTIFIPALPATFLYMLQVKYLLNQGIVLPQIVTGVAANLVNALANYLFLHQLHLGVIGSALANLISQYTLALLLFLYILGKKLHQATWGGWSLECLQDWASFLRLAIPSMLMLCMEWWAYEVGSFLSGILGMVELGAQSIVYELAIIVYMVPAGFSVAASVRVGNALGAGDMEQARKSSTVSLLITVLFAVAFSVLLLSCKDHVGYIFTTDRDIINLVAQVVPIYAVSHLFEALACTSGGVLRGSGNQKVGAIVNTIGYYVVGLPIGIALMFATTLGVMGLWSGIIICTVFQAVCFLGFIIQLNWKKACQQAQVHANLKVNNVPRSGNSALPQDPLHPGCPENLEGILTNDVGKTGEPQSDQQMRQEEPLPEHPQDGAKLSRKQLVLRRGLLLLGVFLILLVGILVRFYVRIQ", "assay": "ASP+ uptake inhibition in HEK293 cells stably expressing MATE1", "assay_type": "cell-based", "settings": "for inhibition potency for MATE1 versus other transporters of the panel: concentration-dependent inhibition, Figure 4C"}, "[3]": {"molecular_target": "T2, human OCT1 (Homo sapiens, UniProt O15245)", "T2 sequence (O15245 1-554)": "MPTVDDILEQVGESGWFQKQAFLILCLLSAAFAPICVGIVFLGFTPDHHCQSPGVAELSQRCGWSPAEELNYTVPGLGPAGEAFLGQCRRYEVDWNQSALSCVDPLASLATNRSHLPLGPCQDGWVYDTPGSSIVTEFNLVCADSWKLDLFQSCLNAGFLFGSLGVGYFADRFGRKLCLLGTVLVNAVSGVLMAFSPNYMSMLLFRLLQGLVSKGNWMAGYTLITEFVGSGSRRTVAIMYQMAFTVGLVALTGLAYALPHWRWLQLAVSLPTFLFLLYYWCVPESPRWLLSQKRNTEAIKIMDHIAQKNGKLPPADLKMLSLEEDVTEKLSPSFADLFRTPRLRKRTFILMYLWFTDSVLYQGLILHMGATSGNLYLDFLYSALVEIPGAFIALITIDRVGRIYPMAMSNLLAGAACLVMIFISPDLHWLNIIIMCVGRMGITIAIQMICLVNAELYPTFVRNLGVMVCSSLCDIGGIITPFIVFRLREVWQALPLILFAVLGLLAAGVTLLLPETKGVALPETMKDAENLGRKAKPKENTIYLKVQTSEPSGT", "settings": "screen at 20 µM"}, "[4]": {"molecular_target": "T3, human OCT2 (Homo sapiens, UniProt O15244, S270A)", "T3 sequence (O15244 1-555 S270A)": "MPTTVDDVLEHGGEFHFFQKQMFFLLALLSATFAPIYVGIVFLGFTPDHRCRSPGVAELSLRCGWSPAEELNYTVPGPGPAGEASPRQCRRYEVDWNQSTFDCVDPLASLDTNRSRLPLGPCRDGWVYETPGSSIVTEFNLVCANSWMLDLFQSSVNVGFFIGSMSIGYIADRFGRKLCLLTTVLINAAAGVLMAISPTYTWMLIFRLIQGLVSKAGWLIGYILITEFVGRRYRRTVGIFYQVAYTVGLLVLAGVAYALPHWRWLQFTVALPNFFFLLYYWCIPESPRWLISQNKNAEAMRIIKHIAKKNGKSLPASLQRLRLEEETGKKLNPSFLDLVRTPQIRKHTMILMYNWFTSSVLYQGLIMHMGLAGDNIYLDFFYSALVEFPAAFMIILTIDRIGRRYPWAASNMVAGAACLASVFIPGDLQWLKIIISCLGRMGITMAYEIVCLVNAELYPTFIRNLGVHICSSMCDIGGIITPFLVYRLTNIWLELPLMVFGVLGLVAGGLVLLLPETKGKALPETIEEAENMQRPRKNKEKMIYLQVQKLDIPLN", "assay": "ASP+ uptake inhibition in HEK293 cells stably expressing OCT2", "settings": "for inhibition of renal OCT2 and MATE1 compared to hepatic OCT1: concentration-dependent inhibition, Figure 4C; for inhibition of OCT2 mediated transport: ASP+ 5 µM"}, "[5]": {"settings": "collected from the literature; cited from earlier work"}, "[6]": {"molecular_target": "T4, OCT2-A270S (Homo sapiens, UniProt O15244)", "T4 sequence (O15244 1-555)": "T3 sequence (O15244 1-555 S270A) with A270S", "assay": "ASP+ uptake inhibition in HEK293 cells stably expressing OCT2-A270S", "assay_type": "cell-based", "settings": "for affinity towards OCT2-A270S compared to reference protein: concentration-dependent inhibition, Figure 4C"}}, "note": "Positions count from the first letter of the chain named."}
{"smiles": "COc1cc(C(=O)NS(=O)(=O)c2ccccc2C)ccc1Cc1cn(C)c2ccc(NC(=O)OC3CCCC3)cc12", "note": "[zafirlukast]", "values": [{"measurement": "inhibition in specificity screen (MATE2-K)", "setting": "[1]; screen at 20 µM", "result": "showed affinity for all four organic cation transporters"}, {"measurement": "inhibition in specificity screen (MATE1)", "setting": "[2]; screen at 20 µM", "result": "showed affinity for all four organic cation transporters"}, {"measurement": "inhibition in specificity screen (OCT1)", "setting": "[3]", "result": "showed affinity for all four organic cation transporters"}, {"measurement": "inhibition in specificity screen (OCT2)", "setting": "[4]; screen at 20 µM", "result": "showed affinity for all four organic cation transporters"}]}
{"smiles": "CN(C)c1ccc(C=Cc2cc[n+](C)cc2)cc1", "note": "[ASP^+, 4-(4-(dimethylamino)styryl)-N-methylpyridinium]", "values": [{"measurement": "Km", "setting": "[4]; read-out: Km of ASP+ transport, OCT2 specific uptake, HEK293 cells", "result": "36.4 ± 6.8", "unit": "µM"}]}
{"smiles": "CN(C)CCCN1c2ccccc2CCc2ccccc21", "note": "[Imipramine]", "values": [{"measurement": "PB, plasma protein binding", "setting": "[5]", "result": 90, "unit": "%"}, {"measurement": "affinity towards OCT2-A270S compared to reference protein", "setting": "[6]", "result": "lower affinity towards the genetic variant OCT2-A270S than to the reference protein"}, {"measurement": "inhibition of renal OCT2 and MATE1 compared to hepatic OCT1", "setting": "[4]", "result": "preferential inhibition of the renal transporters OCT2 and MATE1 compared to the hepatic OCT1"}]}
{"smiles": "CN/C(=N\\CCSCc1nc[nH]c1C)NC#N", "note": "[Cimetidine]", "values": [{"measurement": "inhibition potency for MATE1 versus other transporters of the panel", "setting": "[2]", "result": "considerably higher inhibition potency for MATE1 than for the other transporters in the panel"}, {"measurement": "inhibition of transporter activity", "setting": "[2]; inhibitor 500 µM", "result": "complete inhibition of transporter activity"}, {"measurement": "inhibition of transporter activity", "setting": "[6]; inhibitor 500 µM", "result": "complete inhibition of transporter activity"}, {"measurement": "inhibition of OCT2 mediated transport", "setting": "[4]; inhibitor 20 µM", "result": "partial"}, {"measurement": "inhibition of OCT2 mediated transport", "setting": "[4]; inhibitor 500 µM", "result": "complete inhibition of transporter activity"}]}
{"smiles": "Cc1nccn1CC1CCc2c(c3ccccc3n2C)C1=O", "note": "(stereo not drawn) [Ondansetron]", "values": [{"measurement": "inhibition of transporter activity", "setting": "[1]; inhibitor 250 µM", "result": "complete inhibition of transporter activity"}, {"measurement": "inhibition potency for MATE1 versus other transporters of the panel", "setting": "[2]", "result": "considerably higher inhibition potency for MATE1 than for the other transporters in the panel"}, {"measurement": "affinity towards OCT2-A270S compared to reference protein", "setting": "[6]", "result": "lower affinity towards the genetic variant OCT2-A270S than to the reference protein"}, {"measurement": "inhibition of renal OCT2 and MATE1 compared to hepatic OCT1", "setting": "[4]", "result": "preferential inhibition of the renal transporters OCT2 and MATE1 compared to the hepatic OCT1"}]}
{"smiles": "CC(C)N(CCC(C(N)=O)(c1ccccc1)c1ccccn1)C(C)C", "note": "(stereo not drawn) [Disopyramide]", "values": [{"measurement": "PB, plasma protein binding", "setting": "[5]", "result": 50, "unit": "%"}]}
